The record followed here is patent US8735391B2, “Synthesis of functionalized octahydro-isoquinolin-1-one-8-carboxamides, octahydro-isoquinolin-1-one-8-carboxylic esters and analogs, and therapeutic methods” (University of Kansas, priority 2008, dated 2014).

In assay [1] the target is MOR (Homo sapiens, UniProt P35372). The assay can be described thus: Opioid secondary binding, MOR (Tables 4, 5, 8). As to conditions: Opioid secondary binding activity for Formula 10 analogs; read-out: MOR, Ki.
In assay [2] the target is T1, KOR (Homo sapiens, UniProt P41145). The assay can be described thus: Opioid secondary binding, KOR (Tables 4, 5, 8, 9). The conditions noted are these: Opioid secondary binding activity for Formula 10 analogs; read-out: KOR, Ki.
T1 sequence (P41145 whole entry): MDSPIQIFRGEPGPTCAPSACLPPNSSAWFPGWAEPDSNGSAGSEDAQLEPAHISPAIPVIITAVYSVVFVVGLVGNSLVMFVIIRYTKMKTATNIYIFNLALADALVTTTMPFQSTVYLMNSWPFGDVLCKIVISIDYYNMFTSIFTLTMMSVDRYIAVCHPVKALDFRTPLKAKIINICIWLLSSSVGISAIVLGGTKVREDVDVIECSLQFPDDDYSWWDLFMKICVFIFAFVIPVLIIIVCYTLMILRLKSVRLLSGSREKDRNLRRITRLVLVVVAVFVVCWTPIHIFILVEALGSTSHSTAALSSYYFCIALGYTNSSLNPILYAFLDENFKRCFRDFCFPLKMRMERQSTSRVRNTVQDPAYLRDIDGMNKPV
The target of assay [3] is T1, KOR. The assay can be described thus: [35S]GTPγS binding functional agonist assay on membranes of CHO cells expressing hKOR (reference agonist U69593). Type of assay: biochemical. On the set-up: expressed in transfected cells; host or cells: CHO cells, stably transfected; crude membrane fractions. The conditions noted are these: for Emax values relative to U69593: [35S]GTPγS data-fit top relative to reference agonist U69593; for KOR agonist (average percent efficacy relative to cognate agonist): test compound at 10 micromolar, N=4, reference agonist = 100%, CHO-cell line expressing hKOR. On the procedure:
The compounds prepared herein were tested for bioactivity with opioid receptors. Agonist assays: Data represent the percent efficacy (relative to cognate agonist) of the test compound at 10 micromolar. The response to a saturating concentration of a reference antagonist or to vehicle (usually none or negligible) is set to 0%. […] The response inhibition elicited by a saturating concentration of reference antagonist is set to 100%; the response inhibition (usually none or negligible) elicited by vehicle is set to 0%. The following tables provide data related to the bioactivity for opioid receptors of the compounds described herein.
Table 6 provides data that represent the average percent efficacy (N=4; relative to cognate agonist) of the test compound at 10 micromolar concentration. The response to a saturating concentration of cognate/reference agonist is set to 100%; the response to a saturating concentration of a reference antagonist or to vehicle (usually none or negligible) is set to 0%. All functional assays are performed on stably transfected CHO-cell lines expressing hKOR, hMOR or hDOR.
(§1) Serial dilutions of the test and reference compounds are made in binding buffer at 2× assay concentration (final assay concentrations ranging from 0.1 nM to 10 μM). Crude membrane fractions (1.8 to 3.5 cm2/well) (prepared from 10-cm plates by harvesting PBS-rinsed monolayers, resuspending and lysing in chilled, hypotonic 50 mM Tris-HCl, pH 7.4, centrifuging at 20,000×g, decanting the supernatant and storing at −80 degrees centigrade; typically, one 10-cm plate provides sufficient material for 24 wells) are resuspended in 1.2 ml of assay buffer containing 20 μM GDP, wheat germ agglutinin (WGA)-coated scintillation proximity beads (2.4 mg), and [35S]GTPγS (300 pM final). The suspension is then added (50 μl/well) to 50 μl of the 2× test or reference compounds (each concentration assayed in triplicate) in flexible transparent PET 96-well plates. The reaction plate is sealed and incubated for 90 min at room temperature, then centrifuged for 5 min at 216×g, and finally loaded into a Wallac MicroBeta TriLux counter. Non-specific [35S]GTPγS binding is assessed at the maximum concentration of reference agonist in the presence of 10 μM antagonist. The background signal is measured at 10 μM reference agonist in the presence of 10 μM unlabeled GTPγS. Raw data (dpm) representing total [35S]GTPγS binding (i.e., specific+non-specific binding) are calculated as a percentage of the maximum response by the reference agonist (in this case U69593).
as §1, with “GTPγS.” for “GTPγS. Raw data (dpm) representing total [35S]GTPγS binding (i.e., specific+non-specific binding) are calculated as a percentage of the maximum response by the reference agonist (in this case U69593).”

The target in assay [4] is DOR (Homo sapiens, UniProt P41143). The assay can be described thus: Opioid secondary binding, DOR (Table 4). As to conditions: Opioid secondary binding activity for Formula 10 analogs.
Chain of DOR (P41143 whole entry): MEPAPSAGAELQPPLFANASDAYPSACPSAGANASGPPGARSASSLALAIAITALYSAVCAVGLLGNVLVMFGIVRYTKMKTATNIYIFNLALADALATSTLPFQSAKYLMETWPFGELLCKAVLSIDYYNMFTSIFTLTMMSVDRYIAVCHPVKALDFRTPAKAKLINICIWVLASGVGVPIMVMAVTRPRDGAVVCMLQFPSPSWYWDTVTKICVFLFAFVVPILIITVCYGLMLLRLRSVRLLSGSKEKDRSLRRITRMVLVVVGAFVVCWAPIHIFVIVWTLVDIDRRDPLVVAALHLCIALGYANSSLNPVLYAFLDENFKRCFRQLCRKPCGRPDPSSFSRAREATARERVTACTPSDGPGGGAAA

Chain of MOR (P35372 whole entry): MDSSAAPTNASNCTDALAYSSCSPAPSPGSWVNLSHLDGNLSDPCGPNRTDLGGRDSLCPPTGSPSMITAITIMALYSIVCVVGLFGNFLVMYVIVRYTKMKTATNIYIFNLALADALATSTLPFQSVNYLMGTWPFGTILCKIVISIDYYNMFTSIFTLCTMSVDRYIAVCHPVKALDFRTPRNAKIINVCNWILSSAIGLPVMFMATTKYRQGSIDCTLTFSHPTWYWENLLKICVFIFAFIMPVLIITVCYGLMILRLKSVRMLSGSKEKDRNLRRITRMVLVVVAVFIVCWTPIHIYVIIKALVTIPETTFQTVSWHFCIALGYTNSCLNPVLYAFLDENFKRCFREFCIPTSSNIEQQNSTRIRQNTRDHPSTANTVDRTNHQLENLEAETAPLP

One may read the Ki as the equilibrium dissociation constant of an inhibitor or competing ligand from its target. Turning to `O=C(NCCc1ccccc1)[C@@H]1CC=C[C@@H]2CCN(Cc3ccc(Cl)c(Cl)c3)C(=O)[C@@H]21` (racemic) [compound 5084], the Ki in assay [1] was found to be 5.19 µM; in assay [2] it was 4.8 µM.
For `O=C(Nc1ccc(F)c(F)c1)[C@@H]1CC=C[C@@H]2CCN(Cc3ccc(Cl)c(Cl)c3)C(=O)[C@@H]21` (racemic) [compound 5085] the same measures were 4.66 µM and 2.96 µM.
As for `O=C(NCc1ccc(Cl)c(C(F)(F)F)c1)[C@@H]1CC=C[C@@H]2CCN(CCc3ccccc3)C(=O)[C@@H]21` (racemic) [compound 11874], the values for the Ki in assay [1] and in assay [2] were 1.24 µM and 0.319 µM, respectively.
`Cc1cc(NC(=O)[C@@H]2CC=C[C@@H]3CCN(c4ccccc4)C(=O)[C@@H]32)ccc1Cl` (racemic) [compound 11866]: the Ki in assay [2] worked out at 0.0335 µM. Moreover, the “Emax values relative to U69593” value in assay [3] is given as 123%.
On to `O=C(Nc1ccc(Cl)c(C(F)(F)F)c1)[C@@H]1CC=C[C@@H]2CCN(C3CCCCC3)C(=O)[C@@H]21` (racemic) [compound 8955], for which, in assay [2], the Ki came to 0.111 µM. Also, in assay [3], the “KOR agonist (average percent efficacy relative to cognate agonist)” value came to 93.2%.
For `O=C(NC1CCCCC1)[C@@H]1CC=C[C@@H]2CCN(Cc3ccccc3)C(=O)[C@@H]21` (racemic) [compound 8920, 2-Benzyl-N-cyclohexyl-1-oxo-1,2,3,4,4a,7,8,8a-octahydroisoquinoline-8-carboxamide] the same measures were 0.298 µM and 94.2%.
For `O=C(Nc1ccc(Br)c(C(F)(F)F)c1)[C@@H]1CC=C[C@@H]2CCN(c3ccccc3)C(=O)[C@@H]21` (racemic) [compound 11863], the Ki in assay [2] came out at 0.012 µM. The “Emax values relative to U69593” value in assay [3] is reported as 95%.
Turning to `O=C(Nc1cccc(Cl)c1)[C@@H]1CC=C[C@@H]2CCN(CC3CCCCC3)C(=O)[C@@H]21` (racemic) [compound 11888], the Ki in assay [2] worked out at 0.068 µM. Further, the “Emax values relative to U69593” value in assay [3] turned out to be 70%.
Take `CCCCN1CC[C@H]2C=CC[C@@H](C(=O)NC3CCCCC3)[C@H]2C1=O` (racemic) [compound 8923]: in assay [2], the Ki was determined as 1.03 µM. Moreover, the “KOR agonist (average percent efficacy relative to cognate agonist)” value in assay [3] is on record as 67.6%.
For `COc1ccc(NC(=O)[C@@H]2CC=C[C@@H]3CCN(Cc4ccccc4)C(=O)[C@@H]32)cc1` (racemic) [compound 8943] the same measures were 0.883 µM and 72.9%.
For `O=C(NCc1cccnc1)[C@@H]1CC=C[C@@H]2CCN(Cc3ccc(Cl)c(Cl)c3)C(=O)[C@@H]21` (racemic) [compound 8932], in that order: 0.693 µM and 74.6%.
Consider `CCCCN1CC[C@H]2C=CC[C@@H](C(=O)Nc3ccc(OC)cc3)[C@H]2C1=O` (racemic) [compound 8946], for which the Ki in assay [2] stood at 5.04 µM. Further, the “KOR agonist (average percent efficacy relative to cognate agonist)” value in assay [3] is listed as 23.5%.
For `COc1ccc(CNC(=O)[C@@H]2CC=C[C@@H]3CCN(C4CCCCC4)C(=O)[C@@H]32)cc1` (racemic) [compound 8926] the same measures were 2.69 µM and 29%.
Regarding `CCCCN1CC[C@H]2C=CC[C@@H](C(=O)Nc3ccc(Cl)cc3Cl)[C@H]2C1=O` (racemic) [compound 8950], in assay [2], the Ki amounted to 1.14 µM. The “KOR agonist (average percent efficacy relative to cognate agonist)” value in assay [3] is given as 72.9%.
With `COc1ccc(CNC(=O)[C@@H]2CC=C[C@@H]3CCN(Cc4ccccc4)C(=O)[C@@H]32)cc1` (racemic) [compound 8924], in assay [2], the Ki amounted to 3.73 µM. In assay [3], the “KOR agonist (average percent efficacy relative to cognate agonist)” value turned out to be 18.8%.
As for `COc1ccc(NC(=O)[C@@H]2CC=C[C@@H]3CCN(C4CCCCC4)C(=O)[C@@H]32)cc1` (racemic) [compound 8945], the inhibition constant Ki in assay [2] came out at 1.79 µM; in assay [4], 5.67 µM. The “KOR agonist (average percent efficacy relative to cognate agonist)” value in assay [3] was found to be 54.3%.
On to `O=C(Nc1ccc(Cl)cc1Cl)[C@@H]1CC=C[C@@H]2CCN(C3CCCCC3)C(=O)[C@@H]21` (racemic) [compound 8949], for which, in assay [2], the Ki is 0.506 µM. In assay [3], the “KOR agonist (average percent efficacy relative to cognate agonist)” value is given as 67.9%.
In the case of `COc1ccc(CN2CC[C@H]3C=CC[C@@H](C(=O)Nc4ccc(Cl)c(C(F)(F)F)c4)[C@H]3C2=O)cc1OC` (racemic) [compound 8958], the Ki in assay [1] stood at 2.54 µM.
Consider `O=C(Nc1ccccc1)[C@@H]1CC=C[C@@H]2CCN(C3CC3)C(=O)[C@@H]21` (racemic) [compound 8938], for which, in assay [2], the inhibitory constant (Ki) came to 1.4 µM. The “KOR agonist (average percent efficacy relative to cognate agonist)” value in assay [3] worked out at 21.8%.
For the compound `CCCCN1CC[C@H]2C=CC[C@@H](C(=O)Nc3ccccc3)[C@H]2C1=O` (racemic) [compound 8940], the inhibitory constant (Ki) came out at 0.677 µM in assay [2] and 6.11 µM in assay [4]. Also, the “KOR agonist (average percent efficacy relative to cognate agonist)” value in assay [3] came out at 112.1%.
Take `CCCCN1CC[C@H]2C=CC[C@@H](C(=O)NCCc3ccccc3)[C@H]2C1=O` (racemic) [compound 8918]: the Ki in assay [2] was 3.27 µM. In assay [3], the “KOR agonist (average percent efficacy relative to cognate agonist)” value is on record as 12.6%.
For `O=C([C@@H]1CC=C[C@@H]2CCN(C3CC3)C(=O)[C@@H]21)N1CCN(c2ccccc2)CC1` (racemic) [compound 8913] the same measures were 3.19 µM and 27.5%.
Take `O=C(NC1CCCCC1)[C@@H]1CC=C[C@@H]2CCN(C3CCCCC3)C(=O)[C@@H]21` (racemic) [compound 8922]: the Ki in assay [2] was determined as 0.167 µM. Also, the “KOR agonist (average percent efficacy relative to cognate agonist)” value in assay [3] came out at 8%.
As for `O=C(Nc1ccccc1)[C@@H]1CC=C[C@@H]2CCN(C3CCCCC3)C(=O)[C@@H]21` (racemic) [compound 8939], the Ki in assay [2] was determined as 0.071 µM; in assay [4], 8.94 µM. Moreover, the “KOR agonist (average percent efficacy relative to cognate agonist)” value in assay [3] came out at 133.7%.
With `O=C([C@@H]1CC=C[C@@H]2CCN(C3CCCCC3)C(=O)[C@@H]21)N1CCOCC1` (racemic) [compound 8910], the Ki in assay [2] is 2.95 µM. Moreover, the “KOR agonist (average percent efficacy relative to cognate agonist)” value in assay [3] is listed as 42.7%.
With `O=C(NCc1cccnc1)[C@@H]1CC=C[C@@H]2CCN(C3CCCCC3)C(=O)[C@@H]21` (racemic) [compound 8931], the Ki in assay [2] was 0.552 µM. Moreover, the “KOR agonist (average percent efficacy relative to cognate agonist)” value in assay [3] is given as 67.7%.
For `O=C(Nc1ccc(Cl)c(C(F)(F)F)c1)[C@@H]1CC=C[C@@H]2CCN(C3CC3)C(=O)[C@@H]21` (racemic) [compound 8954], the Ki in assay [2] amounted to 0.493 µM. In assay [3], the “KOR agonist (average percent efficacy relative to cognate agonist)” value was found to be 66.4%.
As for `O=C(Nc1cc(C(F)(F)F)ccc1Cl)C1CC=CC2CCN(C3CCCCC3)C(=O)C21` (racemic) [compound 11837], the Ki in assay [2] was 0.094 µM; in assay [4], 8.02 µM. The “Emax values relative to U69593” value in assay [3] stood at 106%.
On to `O=C(Nc1ccc(Cl)cc1C(F)(F)F)[C@@H]1CC=C[C@@H]2CCN(c3ccccc3)C(=O)[C@@H]21` (racemic) [compound 11864], for which the Ki in assay [2] worked out at 0.068 µM. The “Emax values relative to U69593” value in assay [3] amounted to 119%.
For the compound `O=C(Nc1ccc(Cl)cc1Cl)[C@@H]1CC=C[C@@H]2CCN(Cc3ccc(Cl)c(Cl)c3)C(=O)[C@@H]21` (racemic) [compound 8951], the Ki in assay [2] was 2.44 µM. Besides, the “KOR agonist (average percent efficacy relative to cognate agonist)” value in assay [3] worked out at 23.2%.
